Data from PubChem BioAssay AID330 (DTP/NCI, 2004).
“And” between values parts separate entries of the source, which are not always exact repeats. Equal entries are not always repeated. Toxic doses and inconclusive results are not listed. Rule for the calls: active = survival T/C of 150% or more; inactive = T/C below 125% in these data.

Tested on: P388 leukemia ip, CD2F1 mice, survival T/C
Experiment: NCI In Vivo Anticancer Drug Screen. Data for tumor model P388 Leukemia (intraperitoneal) in CD2F1 (CDF1) mice
Details: endpoint: median survival time, higher = longer survival
How it was run: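 Mice carrying the transplanted tumor received test compound or vehicle. Survival was recorded in each group, and the value is the treated-group measurement divided by that of the vehicle-treated control group.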

[1] = dose: 50.0 mg/kg/injection, schedule: Q01DX005 (ip), vehicle: saline with Tween-80
[2] = dose: 100.0 mg/kg/injection, schedule: Q01DX005 (ip), vehicle: saline with Tween-80
[3] = dose: 200.0 mg/kg/injection, schedule: Q01DX005 (ip), vehicle: saline with Tween-80
[4] = dose: 25.0 mg/kg/injection, schedule: Q04DX002 (ip), vehicle: saline with Tween-80
[5] = dose: 50.0 mg/kg/injection, schedule: Q04DX002 (ip), vehicle: saline with Tween-80
[6] = dose: 60.0 mg/kg/injection, schedule: Q01DX005 (ip), vehicle: saline with Tween-80
[7] = dose: 120.0 mg/kg/injection, schedule: Q01DX005 (ip), vehicle: saline with Tween-80
[8] = dose: 240.0 mg/kg/injection, schedule: Q01DX005 (ip), vehicle: saline with Tween-80
[9] = dose: 100.0 mg/kg/injection, schedule: Q01DX009 (ip), vehicle: saline with Tween-80
[10] = dose: 200.0 mg/kg/injection, schedule: Q01DX009 (ip), vehicle: saline with Tween-80
[11] = dose: 50.0 mg/kg/injection, schedule: Q01DX009 (ip), vehicle: saline with Tween-80
[12] = dose: 50.0 mg/kg/injection, schedule: Q01DX005 (ip), vehicle: Klucel (hydroxypropylcellulose) (HPC)
[13] = dose: 100.0 mg/kg/injection, schedule: Q04DX003 (ip), vehicle: saline with Tween-80
[14] = dose: 200.0 mg/kg/injection, schedule: Q04DX003 (ip), vehicle: saline with Tween-80

Measured: T/C

O=[N+]([O-])c1ccc(/C=C/C=C\c2cccc(S(=O)(=O)F)c2)c(Cl)c1
inactive: dose: 100.0 mg/kg/injection, schedule: Q04DX003 (ip), vehicle: Klucel (hydroxypropylcellulose) (HPC) 90 % of control | dose: 200.0 mg/kg/injection, schedule: Q04DX003 (ip), vehicle: Klucel (hydroxypropylcellulose) (HPC) 90 % of control | dose: 400.0 mg/kg/injection, schedule: Q04DX003 (ip), vehicle: Klucel (hydroxypropylcellulose) (HPC) 90 % of control

CC(=O)ON(C(C)=O)c1ccc(C(=O)OC2(C)CC(C)(C)[N+]([O-])=N2)cc1 (centres undefined) (tested in a mixture with another compound)
inactive: dose: 12.5 mg/kg/injection, schedule: Q01DX009 (ip), vehicle: water 95 % of control | dose: 25.0 mg/kg/injection, schedule: Q01DX009 (ip), vehicle: water 101 % of control | dose: 50.0 mg/kg/injection, schedule: Q01DX009 (ip), vehicle: water 94 % of control | dose: 200.0 mg/kg/injection, schedule: Q01DX009 (ip), vehicle: water 106 % of control

CCOC(=O)/C=C(/C)SC1=CC(=O)c2ccccc2C1=O
inactive: dose: 1.56 mg/kg/injection, schedule: Q01DX009 (ip), vehicle: saline 91 % of control | dose: 6.25 mg/kg/injection, schedule: Q01DX009 (ip), vehicle: saline 98 % of control | dose: 12.5 mg/kg/injection, schedule: Q01DX009 (ip), vehicle: saline with Tween-80 119 % of control | dose: 12.5 mg/kg/injection, schedule: Q01DX009 (ip), vehicle: saline 100 % of control

CCC(C)n1c(C)nc2c(N)cc(C(F)(F)F)cc21 (centres undefined)
inactive: [1] 97 % of control | [2] 91 % of control | [3] 102 % of control

CN=C(N)N/N=C(\C)c1ccc2oc3ccc(/C(C)=N/NC(N)=NC)cc3c2c1
active: [4] 150 % of control | [5] 150 % of control | dose: 100.0 mg/kg/injection, schedule: Q04DX002 (ip), vehicle: saline with Tween-80 154 % of control

C(=NCCSSCCN=Cc1ccccc1)c1ccccc1
inactive: [6] 93 % of control | [7] 93 % of control | [8] 103 % of control

CN(C)CCCN1CCC2(CCC(C(C)(C)C)CC2)CC1
inactive: [1] 106 % of control | [2] 116 % of control

COC(=O)C1=C(C(=O)OC)CC(n2nnc(C(=O)OC)c2C(=O)OC)=CC1
inactive: [6] 92 % of control | [7] 101 % of control | [8] 99 % of control

NNc1cnc2ccccc2n1
inactive: dose: 1.88 mg/kg/injection, schedule: Q01DX009 (ip), vehicle: suspension in saline 93 % of control | dose: 18.8 mg/kg/injection, schedule: Q04DX003 (ip), vehicle: saline 101 % of control and 106 % of control | dose: 37.5 mg/kg/injection, schedule: Q01DX009 (ip), vehicle: suspension in saline 95 % of control | dose: 37.5 mg/kg/injection, schedule: Q04DX003 (ip), vehicle: saline 100 % of control and 103 % of control | dose: 75.0 mg/kg/injection, schedule: Q01DX009 (ip), vehicle: suspension in saline 90 % of control | dose: 75.0 mg/kg/injection, schedule: Q04DX003 (ip), vehicle: saline 100 % of control and 107 % of control

COC1/C=C/O[C@@]2(C)Oc3c(C)c(O)c4c(O)c(cc(O)c4c3C2=O)NC(=O)/C(C)=C\C=C\[C@H](C)C(O)[C@@H](C)[C@@H](O)[C@@H](C)[C@H](OC(C)=O)[C@@H]1C (some centres undefined)
inactive: dose: 6.25 mg/kg/injection, schedule: Q03HX024 (ip), vehicle: saline 100 % of control | dose: 12.5 mg/kg/injection, schedule: Q03HX024 (ip), vehicle: saline 110 % of control | dose: 25.0 mg/kg/injection, schedule: Q03HX024 (ip), vehicle: saline 100 % of control | dose: 50.0 mg/kg/injection, schedule: Q03HX024 (ip), vehicle: saline 100 % of control | [9] 90 % of control | dose: 100.0 mg/kg/injection, schedule: Q03HX024 (ip), vehicle: saline 100 % of control | dose: 100.0 mg/kg/injection, schedule: Q04DX003 (ip), vehicle: saline sonified 100 % of control | [10] 109 % of control | dose: 200.0 mg/kg/injection, schedule: Q04DX003 (ip), vehicle: saline sonified 100 % of control | dose: 400.0 mg/kg/injection, schedule: Q01DX009 (ip), vehicle: saline with Tween-80 118 % of control | dose: 400.0 mg/kg/injection, schedule: Q04DX003 (ip), vehicle: saline sonified 109 % of control

COc1c(Br)cc(Br)cc1/C=C/[N+](=O)[O-]
inactive: [11] 123 % of control

Cc1cc(=O)oc2c(C)c3oc4c(c3cc12)CN(C)CC4
inactive: [12] 100 % of control | dose: 100.0 mg/kg/injection, schedule: Q01DX005 (ip), vehicle: Klucel (hydroxypropylcellulose) (HPC) 117 % of control

O=C1NC(CCCl)C(=O)NC1CCCl (centres undefined)
inactive: [1] 96 % of control | [11] 110 % of control | dose: 50.0 mg/kg/injection, schedule: Q04DX003 (ip), vehicle: saline with Tween-80 95 % of control | [2] 100 % of control | [9] 95 % of control | [13] 100 % of control | [3] 100 % of control | [10] 110 % of control | [14] 100 % of control

CCN(CC)CC(=O)O[C@]1(CC)C(=O)OCc2c1cc1n(c2=O)Cc2cc3ccccc3nc2-1
active: dose: 8.0 mg/kg/injection, schedule: Q01DX005 (ip), vehicle: water 161 % of control and 163 % of control
inactive: dose: 0.5 mg/kg/injection, schedule: Q01DX005 (ip), vehicle: water 110 % of control | dose: 1.0 mg/kg/injection, schedule: Q01DX005 (ip), vehicle: water 115 % of control | dose: 2.0 mg/kg/injection, schedule: Q01DX005 (ip), vehicle: water 115 % of control

N#CCCCOCCOCCOCC(O)C(O)COCCOCCOCCCC#N (centres undefined)
inactive: dose: 25.0 mg/kg/injection, schedule: Q01DX005 (ip), vehicle: suspension in saline 95 % of control | dose: 50.0 mg/kg/injection, schedule: Q01DX005 (ip), vehicle: suspension in saline 99 % of control | dose: 100.0 mg/kg/injection, schedule: Q01DX005 (ip), vehicle: suspension in saline 96 % of control | dose: 200.0 mg/kg/injection, schedule: Q01DX005 (ip), vehicle: suspension in saline 98 % of control

COc1cccc(C=O)c1OCCSC
inactive: dose: 25.0 mg/kg/injection, schedule: Q01DX005 (ip), vehicle: saline with Tween-80 99 % of control | [1] 103 % of control | [2] 108 % of control

NNC(=O)c1cc2c(cn1)[nH]c1ccccc12
inactive: dose: 12.5 mg/kg/injection, schedule: Q01DX009 (ip), vehicle: other 101 % of control | dose: 25.0 mg/kg/injection, schedule: Q01DX009 (ip), vehicle: other 98 % of control | dose: 50.0 mg/kg/injection, schedule: Q01DX009 (ip), vehicle: other 97 % of control | dose: 100.0 mg/kg/injection, schedule: Q01DX009 (ip), vehicle: other 92 % of control | dose: 200.0 mg/kg/injection, schedule: Q01DX009 (ip), vehicle: other 101 % of control

O=S(=O)(Nc1ccc(CCc2ccc(NS(=O)(=O)c3ccccc3)cc2)cc1)c1ccccc1
inactive: dose: 100.0 mg/kg/injection, schedule: Q01DX001 (ip), vehicle: saline with Tween-80 95 % of control | dose: 200.0 mg/kg/injection, schedule: Q01DX001 (ip), vehicle: saline with Tween-80 91 % of control | dose: 400.0 mg/kg/injection, schedule: Q01DX001 (ip), vehicle: saline with Tween-80 91 % of control

CC(CN(CC(=O)O)CC(=O)O)N(CC(=O)O)CC(=O)O.[Cl][Pd][Cl] (centres undefined)
inactive: dose: 60.0 mg/kg/injection, schedule: Q01DX005 (ip), vehicle: saline 94 % of control | dose: 120.0 mg/kg/injection, schedule: Q01DX005 (ip), vehicle: saline 91 % of control

CN=C(N)N/N=C(\C)c1ccc(Cl)c(Cl)c1
inactive: [4] 100 % of control | [5] 99 % of control

CC1(OC(=O)Nc2ccccc2)CCCCC1
inactive: [13] 96 % of control | [14] 100 % of control | dose: 400.0 mg/kg/injection, schedule: Q04DX003 (ip), vehicle: saline with Tween-80 97 % of control

C=CCn1c(COc2c(I)cc(I)c3cccnc23)n[nH]c1=S
inactive: dose: 6.25 mg/kg/injection, schedule: Q01DX005 (ip), vehicle: Klucel (hydroxypropylcellulose) (HPC) 100 % of control and 96 % of control | dose: 12.5 mg/kg/injection, schedule: Q01DX005 (ip), vehicle: Klucel (hydroxypropylcellulose) (HPC) 108 % of control and 115 % of control | dose: 25.0 mg/kg/injection, schedule: Q01DX005 (ip), vehicle: Klucel (hydroxypropylcellulose) (HPC) 106 % of control | [12] 114 % of control
